Test systems include U251 CNS; MALME-3M melanoma; A498 renal; UO-31 renal; SNB-19 CNS; TK-10 renal; HCT-15 colon; COLO 205 colon; MDA-MB-435; OVCAR-5 ovarian.
Holding throughout (test): DTP human tumour cell line panel, 48 h

The structures appear in SMILES notation.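 Results reflect a 48-hour exposure of cells in 96-well plates to compound at five concentrations. GI50 = concentration required for 50% inhibition of growth. TGI: total growth inhibition.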 Where only a bound is given, the exact number is not on record here.

With `N#Cc1cnc2cc(OC[C@@H](O)CO)c(NC(=O)CC3CSSC3)cc2c1Nc1ccc(OCc2cccc(F)c2)c(Cl)c1`, the GI50 in the assay on U251 CNS was 0.777 µM; with MALME-3M melanoma, 0.215 µM; in the assay with A498 renal, 0.848 µM; in the assay on UO-31 renal, 1.63 µM; with SNB-19 CNS it was 0.381 µM; in the assay on TK-10 renal it was 0.772 µM. Moreover, the GI50 was 1.63 µM in the assay with HCT-15 colon, 0.813 µM with COLO 205 colon, 0.113 µM in the assay with MDA-MB-435 and 0.797 µM in the assay on OVCAR-5 ovarian. Also, the TGI with U251 CNS amounted to 1.59 µM; in the assay on MALME-3M melanoma, 0.938 µM; with A498 renal, 1.92 µM; in the assay on UO-31 renal, 5.5 µM; with SNB-19 CNS it was 1.18 µM; in the assay on TK-10 renal, 1.51 µM. For the same compound, the TGI in the assay with HCT-15 colon was 6.51 µM; in the assay with COLO 205 colon it was 1.63 µM; with MDA-MB-435, 0.303 µM; in the assay on OVCAR-5 ovarian it was 1.59 µM.
For the compound `COC(=O)c1sc(C(=O)OC)c2c1CSC2`, the TGI in the assay on U251 CNS was over 81 µM; with MALME-3M melanoma it was over 100 µM; in the assay on A498 renal it was over 100 µM; with UO-31 renal, over 100 µM; with SNB-19 CNS, over 85.8 µM; in the assay on TK-10 renal, over 100 µM. The TGI with HCT-15 colon, in the assay on COLO 205 colon, with MDA-MB-435 and with OVCAR-5 ovarian was over 100 µM throughout.
With `COc1ccccc1NC(=O)n1nc(N)c2ccccc21`, the GI50 was 74.1 µM in the assay with U251 CNS; over 100 µM with MALME-3M melanoma; over 68.7 µM in the assay with A498 renal; over 63.3 µM in the assay on UO-31 renal; over 100 µM in the assay with SNB-19 CNS; 64.2 µM with TK-10 renal. Further, the GI50 was 63.6 µM with HCT-15 colon, over 100 µM with COLO 205 colon, over 100 µM in the assay on MDA-MB-435 and over 100 µM in the assay with OVCAR-5 ovarian. For the same compound, the TGI in the assay with U251 CNS, in the assay on MALME-3M melanoma, in the assay with A498 renal, in the assay on UO-31 renal, with SNB-19 CNS and in the assay with TK-10 renal was over 100 µM each time. For the same compound, the TGI with HCT-15 colon, with COLO 205 colon, in the assay with MDA-MB-435 and in the assay with OVCAR-5 ovarian was over 100 µM in each case.
Consider `NC(=O)c1cc(Br)cc(C2CCCCC2)c1O`, for which the GI50 in the assay on U251 CNS was 10.8 µM; in the assay with MALME-3M melanoma, 19.6 µM; with A498 renal it was 1.01 µM; with UO-31 renal, 2.51 µM; in the assay on SNB-19 CNS, 13.8 µM; with TK-10 renal it was 13.4 µM. For the same compound, the GI50 in the assay on HCT-15 colon was 13.7 µM; with COLO 205 colon, 16.5 µM; with MDA-MB-435 it was 14.7 µM; in the assay on OVCAR-5 ovarian, 13.9 µM. The TGI turned out to be 23 µM in the assay with U251 CNS; 35.9 µM in the assay on MALME-3M melanoma; 14.8 µM in the assay with A498 renal; 18.3 µM in the assay with UO-31 renal; 27.9 µM in the assay with SNB-19 CNS; 28.1 µM with TK-10 renal. The TGI is 30.7 µM with HCT-15 colon, 31.1 µM in the assay with COLO 205 colon, 28.8 µM in the assay with MDA-MB-435 and 27.8 µM in the assay on OVCAR-5 ovarian.
Take `CCOC(=O)C(=Cc1ccccc1[N+](=O)[O-])C(=O)OCC`: the GI50 was 3.65 µM in the assay on U251 CNS; 3.85 µM with MALME-3M melanoma; 5.6 µM in the assay with A498 renal; 4.52 µM with UO-31 renal; 4.27 µM with SNB-19 CNS; 5.39 µM in the assay on TK-10 renal. In addition, the GI50 in the assay with HCT-15 colon was 1.83 µM; in the assay on COLO 205 colon, 2.14 µM; with MDA-MB-435, 3.08 µM; in the assay with OVCAR-5 ovarian, 5.75 µM. For the same compound, the TGI stood at 13.1 µM in the assay on U251 CNS; 13.2 µM with MALME-3M melanoma; 17.3 µM with A498 renal; 15.9 µM in the assay with UO-31 renal; 16.4 µM in the assay on SNB-19 CNS; 15.7 µM in the assay on TK-10 renal. Besides, the TGI in the assay on HCT-15 colon was determined as 4.47 µM; in the assay on COLO 205 colon, 3.85 µM; in the assay on MDA-MB-435, 12.1 µM; with OVCAR-5 ovarian, 15.7 µM.
Consider `Cc1sc(C)c(Cc2c(C)sc(C)c2CCl)c1CCl`, for which the GI50 in the assay on U251 CNS is over 100 µM; in the assay with MALME-3M melanoma, 81.4 µM; with A498 renal, over 100 µM; with UO-31 renal, over 100 µM; in the assay on SNB-19 CNS, over 100 µM; with TK-10 renal, over 100 µM. Moreover, the GI50 in the assay with HCT-15 colon, in the assay on COLO 205 colon, with MDA-MB-435 and in the assay with OVCAR-5 ovarian was over 100 µM in each case. The TGI in the assay with U251 CNS, with MALME-3M melanoma, with A498 renal, in the assay with UO-31 renal, with SNB-19 CNS and in the assay on TK-10 renal was over 100 µM throughout. In addition, the TGI in the assay on HCT-15 colon, with COLO 205 colon, in the assay with MDA-MB-435 and with OVCAR-5 ovarian was over 100 µM in each case.
Consider `Clc1ccc2[nH]cc(-c3nc(-c4c[nH]c5ncccc45)cs3)c2c1`, for which the GI50 in the assay on U251 CNS is 3.17 µM; in the assay with MALME-3M melanoma, 5.17 µM; in the assay on A498 renal it was 2.08 µM; with UO-31 renal it was 1.36 µM; with SNB-19 CNS, 5.97 µM; with TK-10 renal it was 4.71 µM. The GI50 in the assay with HCT-15 colon is 2.6 µM; in the assay with COLO 205 colon, 1.73 µM; in the assay with MDA-MB-435 it was 3.44 µM; in the assay with OVCAR-5 ovarian, 5.63 µM. Further, the TGI with U251 CNS was determined as 13.2 µM; with MALME-3M melanoma, 19 µM; in the assay with A498 renal, 10.4 µM; in the assay on UO-31 renal it was 28.2 µM; in the assay with SNB-19 CNS, 43.9 µM; in the assay with TK-10 renal it was 38.1 µM. Also, the TGI in the assay with HCT-15 colon was 7.9 µM; in the assay with COLO 205 colon, 13.3 µM; in the assay on MDA-MB-435 it was 14.8 µM; in the assay on OVCAR-5 ovarian it was 59.5 µM.
For `COCCOC(=O)NC(=O)Nc1ccc(/C(=N/O)c2ccc(Cl)cc2)cc1`, the GI50 is 0.12 µM with U251 CNS; 11.9 µM in the assay on MALME-3M melanoma; 0.179 µM in the assay with A498 renal; 0.284 µM in the assay on UO-31 renal; 0.535 µM with SNB-19 CNS; 16.5 µM in the assay with TK-10 renal. The GI50 in the assay with HCT-15 colon is 0.0842 µM; in the assay with COLO 205 colon it was 0.14 µM; with MDA-MB-435 it was 0.092 µM; in the assay on OVCAR-5 ovarian it was 0.308 µM. Moreover, the TGI in the assay on U251 CNS is 33 µM; with MALME-3M melanoma, 33.1 µM; in the assay on A498 renal, 3.46 µM; with UO-31 renal, 26.5 µM; in the assay on SNB-19 CNS, over 100 µM; in the assay on TK-10 renal it was over 82.6 µM. Besides, the TGI was 19.8 µM in the assay on HCT-15 colon, 2.28 µM in the assay on COLO 205 colon, 0.374 µM in the assay with MDA-MB-435 and 52.8 µM in the assay with OVCAR-5 ovarian.

For orientation: GI50 means the concentration at which growth is held to half of that of the control. As a reminder, the TGI is the concentration at which net growth stops. A high value points to less potent growth arrest.

The values above are taken from PubChem BioAssay (NCI).
